Results: paper PMC8213057, “Targeting ALK2: An Open Science Approach to Developing Therapeutics for the Treatment of Diffuse Intrinsic Pontine Glioma” (Journal of Medicinal Chemistry, 2020)

Experiments:
TXK = target: T1, TXK (Homo sapiens, UniProt P42681); details: 1 μM; Run 1, Run 2
T1 sequence (P42681 1-527): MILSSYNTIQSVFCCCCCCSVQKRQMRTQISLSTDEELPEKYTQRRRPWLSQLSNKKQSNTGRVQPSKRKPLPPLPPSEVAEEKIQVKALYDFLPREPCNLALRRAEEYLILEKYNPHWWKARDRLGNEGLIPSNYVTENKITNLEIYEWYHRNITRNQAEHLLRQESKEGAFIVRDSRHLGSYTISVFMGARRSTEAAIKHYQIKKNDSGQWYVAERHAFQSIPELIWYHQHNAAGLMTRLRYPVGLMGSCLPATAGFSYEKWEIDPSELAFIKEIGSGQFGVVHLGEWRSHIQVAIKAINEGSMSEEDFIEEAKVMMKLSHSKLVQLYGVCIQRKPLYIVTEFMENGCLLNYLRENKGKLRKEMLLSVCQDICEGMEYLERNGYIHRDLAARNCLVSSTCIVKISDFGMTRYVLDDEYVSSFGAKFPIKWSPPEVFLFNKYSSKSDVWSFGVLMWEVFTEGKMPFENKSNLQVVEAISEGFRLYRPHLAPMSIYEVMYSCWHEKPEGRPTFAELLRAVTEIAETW

LCK2/ICK = target: T2, LCK2/ICK (Homo sapiens, UniProt Q9UPZ9); details: 1 μM; Run 1, Run 2
T2 sequence (Q9UPZ9 1-632): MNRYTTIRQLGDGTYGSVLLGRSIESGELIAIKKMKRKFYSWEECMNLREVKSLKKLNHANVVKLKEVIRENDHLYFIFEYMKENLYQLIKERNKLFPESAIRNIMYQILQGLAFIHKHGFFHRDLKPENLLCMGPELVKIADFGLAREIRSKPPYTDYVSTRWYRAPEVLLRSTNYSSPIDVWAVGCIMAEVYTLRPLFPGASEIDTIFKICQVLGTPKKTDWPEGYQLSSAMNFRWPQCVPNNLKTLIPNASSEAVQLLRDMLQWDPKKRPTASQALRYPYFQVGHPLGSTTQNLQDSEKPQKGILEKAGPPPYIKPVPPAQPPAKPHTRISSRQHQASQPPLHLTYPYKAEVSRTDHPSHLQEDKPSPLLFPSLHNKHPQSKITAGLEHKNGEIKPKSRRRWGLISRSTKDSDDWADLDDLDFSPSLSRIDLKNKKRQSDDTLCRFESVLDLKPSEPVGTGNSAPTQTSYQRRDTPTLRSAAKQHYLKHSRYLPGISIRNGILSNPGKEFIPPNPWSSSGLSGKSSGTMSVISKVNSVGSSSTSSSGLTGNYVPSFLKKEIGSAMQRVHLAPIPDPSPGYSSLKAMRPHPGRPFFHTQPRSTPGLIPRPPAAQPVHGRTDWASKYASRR

PKCb1 = PKCb1 (Homo sapiens, UniProt P05771); details: 1 μM; Run 1, Run 2
PKCb1, sequence (P05771 whole entry): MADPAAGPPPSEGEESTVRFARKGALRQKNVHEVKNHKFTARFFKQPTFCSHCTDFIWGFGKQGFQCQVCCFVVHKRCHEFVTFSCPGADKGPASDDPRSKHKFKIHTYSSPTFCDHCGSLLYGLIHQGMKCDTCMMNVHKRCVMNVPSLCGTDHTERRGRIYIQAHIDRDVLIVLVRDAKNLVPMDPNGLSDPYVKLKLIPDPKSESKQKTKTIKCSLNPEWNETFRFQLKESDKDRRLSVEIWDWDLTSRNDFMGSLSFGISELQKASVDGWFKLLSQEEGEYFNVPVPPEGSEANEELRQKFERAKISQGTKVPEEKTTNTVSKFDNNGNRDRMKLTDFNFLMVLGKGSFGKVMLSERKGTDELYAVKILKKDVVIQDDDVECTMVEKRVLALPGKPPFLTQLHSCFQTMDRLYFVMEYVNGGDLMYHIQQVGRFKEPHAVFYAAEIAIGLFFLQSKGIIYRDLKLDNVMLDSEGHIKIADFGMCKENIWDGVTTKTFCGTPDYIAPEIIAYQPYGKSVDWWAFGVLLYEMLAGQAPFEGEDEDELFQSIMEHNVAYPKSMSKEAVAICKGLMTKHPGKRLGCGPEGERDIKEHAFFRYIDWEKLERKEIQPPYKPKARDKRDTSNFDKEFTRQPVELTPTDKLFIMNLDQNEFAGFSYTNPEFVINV

YSK4/MAP3K19 = target: T3, YSK4/MAP3K19 (Homo sapiens, UniProt Q56UN5); details: 1 μM; Run 1, Run 2
T3 sequence (Q56UN5 1-1328): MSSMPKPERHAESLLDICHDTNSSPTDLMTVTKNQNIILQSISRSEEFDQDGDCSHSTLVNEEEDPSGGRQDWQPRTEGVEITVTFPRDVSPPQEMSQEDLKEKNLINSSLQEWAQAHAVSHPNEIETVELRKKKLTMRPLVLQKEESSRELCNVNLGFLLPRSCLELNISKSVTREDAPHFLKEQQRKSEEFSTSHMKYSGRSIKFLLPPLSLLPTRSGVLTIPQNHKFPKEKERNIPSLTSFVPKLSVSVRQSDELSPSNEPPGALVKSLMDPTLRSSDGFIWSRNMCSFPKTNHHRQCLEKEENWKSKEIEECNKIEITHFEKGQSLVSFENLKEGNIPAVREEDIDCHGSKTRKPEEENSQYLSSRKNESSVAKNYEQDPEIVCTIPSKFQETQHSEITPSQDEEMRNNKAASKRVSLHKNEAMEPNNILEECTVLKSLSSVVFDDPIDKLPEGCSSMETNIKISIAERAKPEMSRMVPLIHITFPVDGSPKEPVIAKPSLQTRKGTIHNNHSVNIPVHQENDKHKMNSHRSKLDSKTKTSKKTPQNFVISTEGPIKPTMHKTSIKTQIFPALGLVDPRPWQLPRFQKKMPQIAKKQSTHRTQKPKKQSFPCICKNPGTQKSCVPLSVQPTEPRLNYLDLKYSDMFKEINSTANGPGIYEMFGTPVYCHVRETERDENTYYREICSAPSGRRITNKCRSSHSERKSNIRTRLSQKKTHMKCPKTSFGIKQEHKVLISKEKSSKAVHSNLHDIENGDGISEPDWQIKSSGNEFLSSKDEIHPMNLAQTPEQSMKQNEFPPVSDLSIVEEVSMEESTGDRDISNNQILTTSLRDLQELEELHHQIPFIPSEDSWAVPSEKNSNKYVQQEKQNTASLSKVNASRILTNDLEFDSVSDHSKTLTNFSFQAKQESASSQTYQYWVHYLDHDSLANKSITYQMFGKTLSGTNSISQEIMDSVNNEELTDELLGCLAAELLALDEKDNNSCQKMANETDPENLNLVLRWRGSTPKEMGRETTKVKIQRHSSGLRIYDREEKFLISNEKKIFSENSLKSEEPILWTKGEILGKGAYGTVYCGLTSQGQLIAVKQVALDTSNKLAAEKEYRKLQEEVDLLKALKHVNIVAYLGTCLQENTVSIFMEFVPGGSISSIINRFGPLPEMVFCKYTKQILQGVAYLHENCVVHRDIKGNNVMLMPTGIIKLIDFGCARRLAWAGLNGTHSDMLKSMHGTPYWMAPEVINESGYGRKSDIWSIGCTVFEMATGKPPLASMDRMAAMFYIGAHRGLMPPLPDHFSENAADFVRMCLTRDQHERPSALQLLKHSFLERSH

FGFR3 = FGFR3 (Homo sapiens, UniProt P22607); details: 1 μM; Run 1, Run 2
FGFR3, sequence (P22607 23-806): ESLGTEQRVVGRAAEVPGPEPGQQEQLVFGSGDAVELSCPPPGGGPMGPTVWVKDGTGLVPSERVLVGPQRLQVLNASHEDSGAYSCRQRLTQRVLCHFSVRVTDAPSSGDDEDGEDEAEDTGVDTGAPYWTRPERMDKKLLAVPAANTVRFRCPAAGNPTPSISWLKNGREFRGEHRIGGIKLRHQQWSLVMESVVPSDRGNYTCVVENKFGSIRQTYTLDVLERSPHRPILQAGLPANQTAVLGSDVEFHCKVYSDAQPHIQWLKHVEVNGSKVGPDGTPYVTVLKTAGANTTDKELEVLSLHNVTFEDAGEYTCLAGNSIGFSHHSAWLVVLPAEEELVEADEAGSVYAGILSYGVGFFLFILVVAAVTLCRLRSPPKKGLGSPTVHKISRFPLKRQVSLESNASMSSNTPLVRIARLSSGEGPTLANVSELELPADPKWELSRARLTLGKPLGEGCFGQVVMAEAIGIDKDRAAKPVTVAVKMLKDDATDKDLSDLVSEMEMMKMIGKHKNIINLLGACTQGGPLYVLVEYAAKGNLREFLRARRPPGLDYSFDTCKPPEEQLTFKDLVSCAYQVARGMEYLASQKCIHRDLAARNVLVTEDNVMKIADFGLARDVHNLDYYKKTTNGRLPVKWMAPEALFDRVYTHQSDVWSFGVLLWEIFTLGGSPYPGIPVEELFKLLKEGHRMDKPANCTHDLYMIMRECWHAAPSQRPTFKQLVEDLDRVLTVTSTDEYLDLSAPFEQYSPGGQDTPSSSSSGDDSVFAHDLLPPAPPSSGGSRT

FLT1/VEGFR1 = FLT1/VEGFR1 (Homo sapiens, UniProt P17948); details: 1 μM; Run 1, Run 2
FLT1/VEGFR1, sequence (P17948 27-1338): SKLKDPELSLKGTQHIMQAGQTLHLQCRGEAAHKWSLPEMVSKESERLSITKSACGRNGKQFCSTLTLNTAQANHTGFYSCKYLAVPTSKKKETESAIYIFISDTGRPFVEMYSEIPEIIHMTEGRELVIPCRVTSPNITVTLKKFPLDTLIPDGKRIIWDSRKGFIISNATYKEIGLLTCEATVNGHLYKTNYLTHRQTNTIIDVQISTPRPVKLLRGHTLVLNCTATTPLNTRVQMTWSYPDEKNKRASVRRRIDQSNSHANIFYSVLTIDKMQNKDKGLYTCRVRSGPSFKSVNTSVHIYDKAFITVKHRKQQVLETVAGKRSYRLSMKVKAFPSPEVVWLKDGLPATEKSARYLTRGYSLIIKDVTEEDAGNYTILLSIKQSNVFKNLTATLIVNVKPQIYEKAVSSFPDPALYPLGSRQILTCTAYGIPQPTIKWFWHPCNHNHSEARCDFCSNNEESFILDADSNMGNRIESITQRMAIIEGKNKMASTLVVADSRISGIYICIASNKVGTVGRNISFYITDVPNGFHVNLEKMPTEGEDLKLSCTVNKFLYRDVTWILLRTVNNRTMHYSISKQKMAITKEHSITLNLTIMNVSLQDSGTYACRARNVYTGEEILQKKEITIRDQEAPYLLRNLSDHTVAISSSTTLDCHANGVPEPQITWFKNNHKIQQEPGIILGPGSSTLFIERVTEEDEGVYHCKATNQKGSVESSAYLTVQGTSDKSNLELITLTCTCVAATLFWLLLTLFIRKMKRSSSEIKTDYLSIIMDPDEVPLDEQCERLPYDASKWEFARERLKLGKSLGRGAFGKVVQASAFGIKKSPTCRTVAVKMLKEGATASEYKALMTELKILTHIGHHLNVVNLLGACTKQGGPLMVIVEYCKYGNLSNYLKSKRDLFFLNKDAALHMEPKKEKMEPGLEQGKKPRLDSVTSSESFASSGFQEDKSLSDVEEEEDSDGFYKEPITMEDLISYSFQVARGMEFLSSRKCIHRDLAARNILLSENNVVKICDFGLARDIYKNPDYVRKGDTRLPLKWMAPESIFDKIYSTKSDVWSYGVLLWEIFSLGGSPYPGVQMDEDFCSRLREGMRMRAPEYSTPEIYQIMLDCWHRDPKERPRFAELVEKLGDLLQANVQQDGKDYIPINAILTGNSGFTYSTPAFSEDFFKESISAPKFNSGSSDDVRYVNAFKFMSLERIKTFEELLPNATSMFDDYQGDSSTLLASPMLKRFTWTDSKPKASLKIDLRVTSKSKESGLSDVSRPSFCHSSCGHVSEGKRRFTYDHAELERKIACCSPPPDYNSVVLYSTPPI

HGK/MAP4K4 = target: T4, HGK/MAP4K4 (Homo sapiens, UniProt O95819); assay: 375-member kinase panel; type: biochemical; details: Run 1, Run 2; for % enzyme activity: 1 μM; for remaining activity at 1 µM: read-out: % enzyme activity, 1 μM
T4 construct: purchased Reaction Biology Corporation
T4 sequence (O95819 whole entry): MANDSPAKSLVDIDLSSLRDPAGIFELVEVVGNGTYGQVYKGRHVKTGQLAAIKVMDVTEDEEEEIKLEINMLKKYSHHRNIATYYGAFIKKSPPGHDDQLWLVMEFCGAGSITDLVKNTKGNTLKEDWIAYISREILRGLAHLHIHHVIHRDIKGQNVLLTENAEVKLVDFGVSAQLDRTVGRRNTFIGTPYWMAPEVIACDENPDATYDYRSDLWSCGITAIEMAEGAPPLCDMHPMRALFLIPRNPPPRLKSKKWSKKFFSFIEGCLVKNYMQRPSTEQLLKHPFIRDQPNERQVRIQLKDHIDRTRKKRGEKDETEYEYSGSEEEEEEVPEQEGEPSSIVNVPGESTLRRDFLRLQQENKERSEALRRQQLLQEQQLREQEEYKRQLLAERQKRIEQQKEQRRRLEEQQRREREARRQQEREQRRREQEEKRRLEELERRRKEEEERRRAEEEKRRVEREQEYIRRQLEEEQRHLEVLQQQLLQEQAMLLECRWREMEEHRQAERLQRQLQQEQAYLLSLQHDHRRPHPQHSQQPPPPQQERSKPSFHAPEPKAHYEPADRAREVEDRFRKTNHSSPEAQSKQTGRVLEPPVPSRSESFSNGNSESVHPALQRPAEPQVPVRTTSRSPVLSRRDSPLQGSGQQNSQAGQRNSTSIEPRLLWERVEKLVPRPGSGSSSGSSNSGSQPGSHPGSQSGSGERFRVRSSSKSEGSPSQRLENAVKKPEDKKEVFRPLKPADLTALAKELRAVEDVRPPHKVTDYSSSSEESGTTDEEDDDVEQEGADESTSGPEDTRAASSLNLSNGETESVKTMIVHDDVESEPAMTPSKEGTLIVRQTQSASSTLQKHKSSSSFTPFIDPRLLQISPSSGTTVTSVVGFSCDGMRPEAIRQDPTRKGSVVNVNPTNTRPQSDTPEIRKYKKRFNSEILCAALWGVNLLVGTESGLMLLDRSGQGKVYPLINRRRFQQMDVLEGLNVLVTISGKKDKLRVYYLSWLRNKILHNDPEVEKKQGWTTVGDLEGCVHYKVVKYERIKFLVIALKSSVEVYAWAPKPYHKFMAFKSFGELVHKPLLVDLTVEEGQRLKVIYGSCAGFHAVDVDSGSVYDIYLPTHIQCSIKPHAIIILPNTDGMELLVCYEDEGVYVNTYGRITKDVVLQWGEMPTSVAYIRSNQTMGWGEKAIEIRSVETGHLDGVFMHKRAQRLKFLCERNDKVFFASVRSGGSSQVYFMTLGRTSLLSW

STK25/YSK1 = STK25/YSK1 (Homo sapiens, UniProt O00506); assay: biochemical; details: read-out: % enzyme activity, 1 μM; Run 1, Run 2
TRKC = TRKC (Homo sapiens, UniProt Q16288); assay: biochemical; details: read-out: % enzyme activity, 1 μM; Run 1, Run 2
TRKC, sequence (Q16288 32-839): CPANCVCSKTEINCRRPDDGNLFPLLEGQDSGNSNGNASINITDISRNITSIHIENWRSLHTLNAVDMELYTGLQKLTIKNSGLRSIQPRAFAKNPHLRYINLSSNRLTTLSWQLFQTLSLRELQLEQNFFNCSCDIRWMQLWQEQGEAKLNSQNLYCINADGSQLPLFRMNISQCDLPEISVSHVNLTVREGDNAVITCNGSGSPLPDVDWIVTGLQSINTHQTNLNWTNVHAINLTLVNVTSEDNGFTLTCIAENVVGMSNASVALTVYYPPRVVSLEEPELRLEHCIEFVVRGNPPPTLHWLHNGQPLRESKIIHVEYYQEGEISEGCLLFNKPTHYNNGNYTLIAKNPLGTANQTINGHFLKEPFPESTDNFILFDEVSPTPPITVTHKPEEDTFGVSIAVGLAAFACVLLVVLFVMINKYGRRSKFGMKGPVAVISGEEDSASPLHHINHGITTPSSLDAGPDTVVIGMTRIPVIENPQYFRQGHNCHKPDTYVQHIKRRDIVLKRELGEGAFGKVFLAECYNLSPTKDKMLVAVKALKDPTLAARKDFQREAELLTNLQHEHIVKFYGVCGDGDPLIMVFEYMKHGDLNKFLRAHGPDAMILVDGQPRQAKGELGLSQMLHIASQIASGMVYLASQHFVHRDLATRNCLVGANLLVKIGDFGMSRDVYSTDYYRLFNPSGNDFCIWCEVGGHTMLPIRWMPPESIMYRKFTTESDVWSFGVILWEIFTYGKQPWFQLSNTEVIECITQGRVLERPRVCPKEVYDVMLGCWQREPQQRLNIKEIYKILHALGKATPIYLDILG

FGFR1 = FGFR1 (Homo sapiens, UniProt P11362); assay: biochemical; details: read-out: % enzyme activity, 1 μM; Run 1, Run 2

`COc1cc(-c2cncc(-c3ccc(N4CCN(C)CC4)cc3)c2C)cc(F)c1C(N)=O` [Compound 26a, 2-Fluoro-6-methoxy-4-(4-methyl-5-(4-(4-methylpiperazin-1-yl)phenyl)pyridin-3-yl)benzamide] was tested, and the “% enzyme activity” value (TXK) was 100.80%, the “% enzyme activity” value (LCK2/ICK) was 104.57% and the “% enzyme activity” value (PKCb1) was 82.63%. For the same compound, the “% enzyme activity” value (YSK4/MAP3K19) was 97.39%, the “% enzyme activity” value (FGFR3) was 100.98% and the “% enzyme activity” value (FLT1/VEGFR1) was 105.29%. For the same compound, the “% enzyme activity” value (HGK/MAP4K4) was 20.97%, the remaining activity at 1 µM (HGK/MAP4K4) was 22% and the remaining activity at 1 µM (STK25/YSK1) was 95.7%. It also gave a remaining activity at 1 µM (TRKC) of 103% and a remaining activity at 1 µM (FGFR1) of 97.4%.
`COc1cc(-c2cncc(-c3ccc(N4C[C@@H](C)N(C)[C@@H](C)C4)cc3)c2C)cc(F)c1C(N)=O` [Compound 26c, 2-Fluoro-6-methoxy-4-(4-methyl-5-(4-((3R,5S)-3,4,5-trimethylpiperazin-1-yl)phenyl)pyridin-3-yl)benzamide] was tested, and the “% enzyme activity” value (TXK) was 95.85%, the “% enzyme activity” value (LCK2/ICK) was 95.60% and the “% enzyme activity” value (PKCb1) was 83.58%. The “% enzyme activity” value (YSK4/MAP3K19) was 96.61%, the “% enzyme activity” value (FGFR3) was 102.08% and the “% enzyme activity” value (FLT1/VEGFR1) was 104.04%. For the same compound, the “% enzyme activity” value (HGK/MAP4K4) was 28.35%, the remaining activity at 1 µM (HGK/MAP4K4) was 30.6% and the remaining activity at 1 µM (STK25/YSK1) was 96.1%. It also gave a remaining activity at 1 µM (TRKC) of 99% and a remaining activity at 1 µM (FGFR1) of 101%.
